Earlier results in patent US20070119380A1, “Additive Composition for Feeding Aquaculture Animals and Feed Containing the Same” (priority 2003, published 2007).

What was measured:
[1] = in whitefish flesh/muscle, fresh/wet sample
mice = conditions: interperitoneal and oral administration

Structure (SMILES) | minimal amount (flavor threshold value) to produce a recognizable sensation [1] | sub-lethal toxic effects (mice)
Oc1ccccc1Br [2-bromophenol] | 10 ng/g | no sub-lethal toxic effects
Oc1c(Br)cccc1Br [2,6-dibromophenol] | 0.1 ng/g | 
Oc1ccc(Br)cc1 [4-bromophenol] | 20 ng/g | 
Oc1ccc(Br)cc1Br [2,4-dibromophenol] | 50 ng/g | 
Oc1c(Br)cc(Br)cc1Br [2,4,6-tribromophenol] | 10 ng/g | no sub-lethal toxic effects
